Assay results as given in paper PMC7408493, “Implication of Opioid Receptors in the Antihypertensive Effect of a Novel Chicken Foot-Derived Peptide” (Biomolecules, 2020).
Ends that are not written are not given here.

Columns and labels:
[1] = system: trypsin, α-chymotrypsin, porcine pancreatic lipase and colipase; test: In vitro simulated duodenal digestion (D60); format: in vitro ADME; conditions: 60 min simulated duodenal digestion, pH 7, 37 °C
Experimental: For the in vitro simulated peptide GI digestion, a two-stage hydrolysis process was carried out according to Martos et al.. […] was dissolved in simulated gastric fluid (35 mM NaCl at pH 2 for 15 min) and posteriorly subjected to digestion by porcine pepsin (E.C. 3.4.23.1, 3440 units/mg) at an enzyme/substrate ratio of 1: 20 w/w at 37 °C for 60 min. Gastric digestion with pepsin was stopped by adding 1 M NaHCO3 and pH was adjusted to 7.0 with NaOH 1 M (final protein concentration of 5 mg/mL). Aliquots of this gastric digest were collected (G60) and stored at −20 °C until analysis. Duodenal digestions were performed by using, as the starting material, the obtained gastric digests, with the addition of 1 M CaCl2, 0.25 M bis-Tris pH 6.5, 0.25 M bis-Tris pH 6.5, and a 0.125 M bile salts mixture containing equimolar quantities of sodium taurocholate and glycodeoxycholic acid. […]
Samples obtained from in vitro peptide simulated digestion and Caco-2 monolayers were diluted 10 times with water (0.1% FA) and centrifuged (15,000 rpm, 15 min, 4 °C). Supernatants were directly analyzed by UHPLC-HRMS to avoid the loss of polar peptide fragments. […]

Caco-2 cell monolayers = test: Transepithelial transport through Caco-2 monolayer; format: in vitro ADME; conditions: 1 h, 37 °C, UHPLC-HRMS
Experimental: Caco-2 cells were obtained from Sigma-Aldrich and were grown Dulbecco’s modified minimum essential medium (DMEM), supplemented with 20% fetal bovine serum (FBS), […] L-glutamine, 100 U/mL penicillin and 100 μg/mL streptomycin at 37 °C in and 5% CO2. Cells were seeded onto Transwell inserts permeable membrane support (0.4 µm pore, 24 mm diameter, 4.7 cm^2 grown surface from Merck Co., Bedford, MA, USA) placed in six-well plates. The seeding density was 12,000 cell/cm^2. The medium was replaced every 2–3 days and cells were growing for 21 days. On the 21st day of the procedure, the integrity of the Caco-2 monolayer was assessed by the measurement of transepithelial electrical resistance (TEER) using a Millicell ERS-2 voltammeter (EMD Millipore, Darmstadt, Germany) selecting the ones with TEER values higher than 200 Ω/cm^2.
For the transport study, Caco-2 cells, maintained in DMEM, were gently rinsed with Hank’s balanced salt solution (HBSS) and equilibrated for 20 min at 37 °C prior to the transport study. Then, it was evaluated the transepithelial transport of the peptide […] (1 mM) dissolved in HBSS and the digests obtained in the in vitro simulated digestion (G60 and D60). […] or the peptide digests G60 and D60 were added to the apical (AP) chamber and were incubated for 1 h at 37 °C. After this time, triplicates of the AP chamber content and the basolateral (BL) chamber content were taken and stored at −80 °C until ultra-high performance liquid chromatography-high resolution mass spectrometry (UHPLC-HRMS) analyses.
Samples obtained from in vitro peptide simulated digestion and Caco-2 monolayers were diluted 10 times with water (0.1% FA) and centrifuged (15,000 rpm, 15 min, 4 °C). Supernatants were directly analyzed by UHPLC-HRMS to avoid the loss of polar peptide fragments. Extensive clean-up or pre-concentration procedures were not necessary due to the high concentration of peptide and low matrix complexity than plasma samples.
The obtained purified solutions from plasma and peptide digests G60 and D60 and from AP and BL chambers in Caco-2 experiment were analyzed using a UHPLC 1290 Infinity II Series coupled to a QqQ 6490 Series (Agilent Technologies, Santa Clara, CA, USA) for tandem mass experiments or a qTOF 6550 Series (Agilent Technologies) for high-resolution mass spectrometry experiments. Chromatographic separation of peptide or their fragments were performed using a Kinetex 2.6 µm EVO C18 column (150 × 2.1 mm, […]) from (Phenomenex, Torrance, USA) as stationary phase and water containing 0.1% formic acid (solvent A) and acetonitrile (solvent B) as mobile phase. The separation was performed in gradient elution as follows: isocratic; 0–0.5 min, 2 % B; 0.5–1 min, 2–6% B; 1–5 min, 6–15% B; 5–6 min, 15–35% B; 6–10 min, 35–98% B; 10–12 min, 98% B isocratic; 12–12.10, 98–2% B. For all runs, 10 μL of the sample (4 °C) was injected, and the flow rate was 0.350 mL/min and the column temperature was 25 °C.
For in vitro simulated digestion experiments and Caco-2 monolayer samples, qTOF instrument was used to investigate the presence of unknown peptide fragments and previously in silico predicted peptide fragments by means of its accurate mass. Peptide and its fragments were semi-quantified using the chromatographic peak area observed in the extracted ion chromatograms using a 20 ppm mass window.

AVFQHNCQE
Fate after duodenal digestion [1]: mainly hydrolyzed into free amino acid residues
G60 % Transport (Caco-2 cell monolayers; 21 days, TEER > 200 Ω/cm^2, gastric digest G60 added to apical chamber, AP to BL, HBSS, content in basolateral chamber in comparison to apical chamber, triplicates): 0.25%
Absorption through the intestinal monolayer (Caco-2 cell monolayers; native peptide 1 mM in HBSS or digests in apical chamber): not absorbed through the intestinal monolayer
